According to paper PMC11596610 (Molecules, 2024):
Like-named read-outs stand apart in the source and are kept apart here.

What was measured:
[1] = test system: P. falciparum strain NF54; experiment: [3H]-hypoxanthine incorporation assay, antiplasmodial activity; format: cell-based; details: Plasmodium falciparum
Method: Compounds were dissolved in DMSO at 10 mM, serial dilutions prepared in hypoxanthine-free culture medium (7-step dilution series; 2-fold serial dilutions) and 100 μL aliquots were dispensed in duplicates into 96-well cell culture plates. […] After incubation for 48 h, 0.25 μCi of [^3H]-hypoxanthine was added per well and plates were incubated for an additional 24 h. Parasites were harvested onto glass-fiber filters using a Microbeta FilterMate cell harvester (Perkin Elmer, Waltham, MA, USA) and radioactivity was counted using a MicroBeta2 liquid scintillation counter (Perkin Elmer, Waltham, MA, USA).

[2] = Cytotoxicity assay with the rat L6 cell line (resazurin); format: cell-based
Method: Cultures were maintained at 37 °C in an atmosphere of 5% CO2. […] Plates were incubated at 37 °C under a 5% CO2 atmosphere for 24 h. After that, compounds were dissolved in DMSO (10 mM or 10 mg/mL), serial drug dilutions of eleven 3-fold dilution steps covering a range from 100 to 0.002 μg/mL or 100 to 0.002 µM were prepared, and the plates incubated at 37 °C under 5% CO2 for 70 h. […] The results were expressed as percentage of the untreated controls. Fifty percent inhibitory concentrations (IC50) were estimated by linear interpolation.

[3] = test system: S. mansoni adult worms; experiment: Drug assay against ex vivo S. mansoni adult worms; format: cell-based, Schistosoma mansoni; details: for IC50: Schistosoma mansoni
Method: Female NMRI mice (age 3 weeks, weight ca. 14–20 g) were purchased from Charles River (Sulzfeld, Germany). […] To obtain adult schistosomes, NMRI mice were infected subcutaneously with 80 to 100 cercariae. After 49 days, the mice were euthanized with CO2 and the worms collected from the hepatic portal and mesenteric veins. […] Each compound was tested in duplicate. Artesunate and praziquantel were previously tested in the drug assay against S. mansoni adult worms. Schistosomes incubation with no more than 1% DMSO served as control. Worms were kept in an incubator at 37 °C and 5% CO2 for up to 72 h. After 24, 48 and 72 h, the condition of the worms was microscopically evaluated and scored as described above.

[4] = test system: S. mansoni; experiment: Drug assay in vivo in S. mansoni-infected mice; set-up: species or system mice (NMRI); details: single oral dose 200 mg/kg
Method: The in vivo study was carried out in accordance with Swiss national and cantonal regulations on animal welfare under the permission number 545. Female mice (NMRI strain; 3-week-old; weight ca. 20–22 g) were purchased from Charles River, Germany. Rodents were kept under environmentally controlled conditions (temperature ~25 °C; humidity ~70%; 12 h light, 12 h dark cycle) with free access to water and rodent diet, and acclimatized for one week before infection. […]. Untreated mice (n = 4) served as controls in all experiments. Two weeks post-treatment mice were dissected and all worms counted. Worm burden reductions were calculated.

[5] = test system: S. mansoni newly transformed schistosomula (NTS); experiment: Drug assay against S. mansoni NTS; format: cell-based, Schistosoma mansoni; details: for IC50: Schistosoma mansoni
Text: Harvested S. mansoni cercariae (Liberian strain) obtained from infected Biomphalaria glabrata snails were mechanically transformed into newly transformed schistosomula (NTS) following standard procedures as described. Artesunate and praziquantel were previously tested in the drug assay against S. mansoni NTS [39]. […] Culture medium was composed of M199 medium (Gibco, Waltham MA, USA) supplemented with 5% Horse Serum (Gibco, Waltham MA, USA), 1% penicillin/streptomycin mixture (Invitrogen, Carlsbad, CA, USA, 100 U/mL) and 1% Mäser Mix. Each compound was tested in triplicate. NTS incubated with no more than 1% DMSO served as control. NTS were kept in the incubator at 37 °C and 5% CO2 for up to 72 h. After 24, 48 and 72 h, the condition of the NTS was microscopically evaluated.

[6] = P. falciparum NF54, 3H-hypoxanthine incorporation, mean of 2 independent determinations, read-out: NF54 IC50

Row | SMILES | CC50 at 70 h ([2]; rat) | IC50 [1, 6] | IC50 ([3]; 24 h) | IC50 ([3]; 48 h) | IC50 ([3]; 72 h) | Effect in % ± SD ([3]; test conc. 10 µM, 24 h) | Effect in % ± SD ([3]; test conc. 10 µM, 48 h) | Effect in % ± SD ([3]; test conc. 10 µM, 72 h) | Effect in % ± SD ([3]; test conc. 25 µM, 24 h) | Effect in % ± SD ([3]; test conc. 25 µM, 48 h) | Effect in % ± SD ([3]; test conc. 25 µM, 72 h) | IC50 ([5]; 24 h) | IC50 ([5]; 48 h) | IC50 ([5]; 72 h) | Effect in % ± SD ([5]; test conc. 1 µM, 24 h) | Effect in % ± SD ([5]; test conc. 1 µM, 48 h) | Effect in % ± SD ([5]; test conc. 1 µM, 72 h) | Effect in % ± SD ([5]; test conc. 10 µM, 24 h) | Effect in % ± SD ([5]; test conc. 10 µM, 48 h) | Effect in % ± SD ([5]; test conc. 10 µM, 72 h) | other results
1 | CCN(CC)CCCC(C)Nc1ccnc2cc(Cl)ccc12 (stereo not shown) [CQ diphosphate, Chloroquine diphosphate, reference compound] | – | – | – | – | – | – | – | – | – | – | – | – | – | – | – | – | – | – | – | – | IC50 ([1]; NF54, read-out: NF54 IC50): 4 ng/mL
2 | CC1=C(Cc2ccc(C(F)(F)F)cc2)C(=O)C2(C)CC=CC=C2C1=O (racemic) [Product 1, (±)-2,4a-dimethyl-3-(4-(trifluoromethyl)benzyl)-4a,5-dihydronaphthalene-1,4-dione] | 22500 nM | 1850 ± 458 nM | 800 nM | 200 nM | 600 nM | 53.7 ± 0.9% | 65.65 ± 3.1% | 66.7 ± 2.1% | 70.4 ± 3.7% | 73.15 ± 2.8% | 88.9 ± 0% | 2700 nM | 2400 nM | 2000 nM | 18.87 ± 1.9% | 26.42 ± 1.9% | 28.57 ± 2% | 34.59 ± 1.3% | 35.35 ± 0.7% | 71.70 ± 9.4% | Effect in % ± SD ([3]; test conc. 1 µM, 24 h): 53.3 ± 0%; Effect in % ± SD ([3]; test conc. 1 µM, 48 h): 58.3 ± 0%; Effect in % ± SD ([3]; test conc. 1 µM, 72 h): 59.15 ± 0.8%; Total WBR (worm burden reduction) [4]: 15.7%; Cures ([4]; cured/treated): 0/4; Mean Number of Worms (SD) Females ([4]; two weeks post-treatment): 10.8 (1.0); Mean Number of Worms (SD) Liver ([4]; two weeks post-treatment): 0; Mean Number of Worms (SD) Mesenteric Veins ([4]; two weeks post-treatment): 21.5 (1.9); Mean Number of Worms (SD) Total ([4]; two weeks post-treatment): 21.5 (1.9); Effect in % ± SD ([5]; test conc. 25 µM, 24 h): 100 ± 0%; Effect in % ± SD ([5]; test conc. 25 µM, 48 h): 100 ± 0%; Effect in % ± SD ([5]; test conc. 25 µM, 72 h): 100 ± 0%
3 | CC1=C(Cc2ccc(C(F)(F)F)cc2)C(=O)C2=CC=CCC2(C)C1=O (racemic) [Product 2, (±)-3,4a-dimethyl-2-(4-(trifluoromethyl)benzyl)-4a,5-dihydronaphthalene-1,4-dione] | 25600 nM | 2390 ± 825 nM | 22700 nM | 17300 nM | 15200 nM | 42.75 ± 1% | 48.05 ± 2.9% | 50 ± 0% | 44.4 ± 0% | 49.05 ± 0.9% | 51.9 ± 0% | 17400 nM | 8500 nM | 1700 nM | 20.75 ± 0% | 32.08 ± 0% | 36.73 ± 2% | 34.52 ± 6.2% | 51.43 ± 8.6% | 86.79 ± 1.9% | –
4 | C[C@H]1[C@H](OC(=O)CCC(=O)O)O[C@@H]2O[C@@]3(C)CC[C@H]4[C@H](C)CC[C@@H]1[C@@]24OO3 [artesunate, reference compound] | – | – | – | – | – | – | – | – | – | – | – | – | – | – | – | – | – | – | – | – | IC50 ([1]; P. falciparum NF54, reference compounds, values printed in ng/mL, read-out: NF54 IC50): 1.52 ng/mL
5 | COc1cc([C@@H]2c3cc4c(cc3[C@H](O)[C@H]3COC(=O)[C@H]23)OCO4)cc(OC)c1OC [Podophyllotoxin, podophyllotoxin, reference compound] | – | – | – | – | – | – | – | – | – | – | – | – | – | – | – | – | – | – | – | – | CC50 at 70 h ([2]; rat L6 cells, 70 h incubation, resazurin, read-out: L6 CC50): 10 nM
